# Reference: patent US20180117176A1, “POROUS SILICON MICROPARTICLE-BASED CANCER VACCINES AND METHODS FOR POTENTIATING ANTI-TUMOR IMMUNITY” (The Methodist Hospital, priority 2015, published 2018)
# Where a SMILES comes first, the peptide text is derived from it. The star is where a group is joined. Cbz = O=C(OCc1ccccc1)*
# Tests used:
# Format in all cases: cell-based, mouse
# [1] = tested on: Ifn-α4 and Ifn-β genes; experiment: QPCR analysis of Ifn-α4 and Ifn-β gene expression in BMDCs; conditions: BMDCs pre-treated with chemical inhibitor
# Method: FIG. 3A, FIG. 3B, FIG. 3C, and FIG. 3D show PSM-induced IFN-I signaling in DCs. […] Cell culture medium served as the negative control. […] FIG. 3C is a QPCR analysis of mRNA levels of the Ifn-α4 and Ifn-β genes in BMDCs 5 hrs after co-incubation with PSM, free antigen, or PSM/OVA antigen. […] Data are presented as mean±S.D.; *, P <0.05, **, P <0.01 (see also FIG. 9A and FIG. 9B);
# FIG. 4A, FIG. 4B, FIG. 4C, FIG. 4D, FIG. 4E, FIG. 4F, FIG. 4G, FIG. 4H, FIG. 4I, and FIG. 4J show TRIF and MAVS mediated PSM induced interferon type I (IFN-I) activation. FIG. 4A, FIG. 4B, FIG. 4C, and FIG. 4D illustrate PSM-induced changes of Ifn-α4 and Ifn-β gene expression in BMDCs infected with lentiviruses carrying shRNAs targeting the indicated genes. FIG. 4E, FIG. 4F, FIG. 4G, and FIG. 4H illustrate PSM-induced changes of Ifn-α4 and Ifn-β gene expression in BMDCs isolated from wild-type or gene knockout mice. […] FIG. 4J is a schematic view of PSM-induced signaling pathway that mediates IFN-I activation. Data are presented as mean±S.D.; *, P <0.05, **, P <0.01; (see also FIG. 10A, FIG. 10B, FIG. 10C, FIG. 10D, FIG. 10E, and FIG. 10F);
# FIG. 10A, FIG. 10B, FIG. 10C, FIG. 10D, FIG. 10E, and FIG. 10F show PSM induced activation of IFN-I signaling in DCs. […]
# Real-Time PCR. […] The expression of individual genes was calculated by a ΔΔCT method, and normalized to the expression of β-actin. […]
# [2] = tested on: OVA-specific B3Z CD8 T cells; experiment: In vitro antigen presentation assay, IL-2 production by B3Z cells; conditions: DCs treated with inhibitor before co-incubation with soluble OVA
# Method: In Vitro Antigen Presentation Assay. The in vitro antigen presentation assay was performed as previously described (Mukai et al., 2011). Briefly, DC2.4 cells or BMDCs isolated from C57BL/6 mice or TAP^−/− mice were seeded in a 96-well flat-bottom culture plates at a density of 2×10^5 cells/well, and cultured for 12 hrs at 37° C. Each well was washed once with PBS, and then the cells were pulsed with soluble OVA, PSM/OVA, OVA-derived MHC class I epitope peptide [OVA257-264; SIINFEKL (SEQ ID NO:1)], or MHC class II epitope peptide [OVA323-339; ISQAVHAAHAEINEAGR (SEQ ID NO:2); Peptide 2.0] for indicated time points, and immediately fixed with 1% paraformaldehyde. The cells were then co-cultured with 2×10^5 B3Z cells or 2×10^5 DOBW cells for 18 hrs at 37° C. The response of stimulated B3Z or DOBW cells was assessed by determining the amount of IL-2 released into the culture medium using a murine IL-2 ELISA KIT (Ebioscience, San Diego, Calif., USA). […]
# T-cell response to antigen cross-presentation of PSM-loaded OVA (PSM/OVA) was next assessed in DCs using an in vitro antigen presentation assay. […] It was subsequently determined whether PSM packaging could induce sustained antigen presentation. […]
# [3] = tested on: DCs (DC2.4 cells, BMDCs); experiment: DC uptake of PSM/FITC-OVA in cell culture
# Source text: FIG. 1A, FIG. 1B, FIG. 1C, FIG. 1D, FIG. 1E, FIG. 1F, and FIG. 1G show PSM-loaded antigen was efficiently internalized by dendritic cells (DCs) through phagocytosis and macropinocytosis. […] Upper panel, DC2.4 cells; lower panel, bone-marrow-derived dendritic cells (BMDCs). Scale bar, 25 μm. FIG. 1B is a representative transmission electron microscopy (TEM) image showing the vesicular structure around a PSM/OVA particle inside a DC. Upper panel magnification=5,000×; lower panel magnification=50,000×. Upper panel scale bar=4 μm; lower panel bar=0.5 μm. […] The DCs were extensively washed after priming with 5 μg/mL soluble peptide or PSM/peptides, and either immediately co-incubated with B3Z cells (0 hrs), or cultured for 18 to 30 hrs before T-cell co-incubation; Data are presented as mean±S.D.; *, P <0.05, **, P <0.01; (See also FIG. 7A-FIG. 7E);
# Confocal Laser Scanning Microscopy. DC2.4 cells or BMDCs were seeded on eight-well chamber slides at a density of 1×10^5 cells/well and cultured for 24 hrs at 37° C. Each well was washed twice with PBS, and the cells were pulsed with FITC-OVA or PSM/FITC-OVA for 20 min. Cells were washed twice with PBS and incubated for an additional 30 min, 1, 3, or 6 hours in culture medium at 37° C. […] The samples were embedded with Prolong® Gold anti-fade reagent with DAPI (Invitrogen) and analyzed by confocal laser scanning microscopy (Olympus IX81). […]
# [4] = tested on: DCs; experiment: Intracellular antigen trafficking by confocal microscopy
# Method: FIG. 2A, FIG. 2B, and FIG. 2C show antigen presentation of PSM-loaded OVA. FIG. 2A illustrates subcellular transport of antigens. DCs were incubated with PSM/FITC-OVA for 0.5 hrs, and then washed extensively to remove unbound particles. The cells were cultured for an additional 0.5 hr, 1 hr, 3 hrs, or 6 hrs before fixation, followed by immunostaining with antibodies recognizing specific organelles (EEA1 for early endosome; Rab7 for late endosome; TR for recycling endosome; and KDEL for the ER). Scale bar=25 μm. […] Peptide I (100 ng/mL) served as the positive control. […] BMDCs were incubated with OVA or PSM/OVA for 16 hrs, followed by harvest and labeling with the anti-CD11c antibody identifying DCs and the 25D1.16 antibody recognizing OVA257-264/H-2K^b complex on DC surface. Percentages of 25D1.16-staining positive populations in DCs are shown in red numbers. Data are presented as mean±S.D; *, P <0.05, **, P <0.01 (see also FIG. 8A, FIG. 8B and FIG. 8C);
# Confocal Laser Scanning Microscopy. DC2.4 cells or BMDCs were seeded on eight-well chamber slides at a density of 1×10^5 cells/well and cultured for 24 hrs at 37° C. Each well was washed twice with PBS, and the cells were pulsed with FITC-OVA or PSM/FITC-OVA for 20 min. […] The samples were embedded with Prolong® Gold anti-fade reagent with DAPI (Invitrogen) and analyzed by confocal laser scanning microscopy (Olympus IX81).
Compound,Effect of inhibitor on IFN-I induction by PSM [1],Effect of inhibitor pre-treatment on particle internalization [3],further results
O=C(NCCCNc1nc(Nc2cccc(NC(=O)N3CCCC3)c2)ncc1I)c1cccs1 [BX795],markedly inhibited IFN-I induction,,
CC(C)C[C@@H](C=O)NC(=O)[C@H](CC(C)C)NC(=O)[C@H](CC(C)C)NC(=O)OCc1ccccc1 [MG-132] (Cbz-Leu-Leu-Leu-aldehyde),,,Effect on class I antigen presentation of soluble OVA [2]: completely blocked
N=C(N)NC(=O)c1nc(Cl)c(N)nc1N [amiloride],,significantly decreased particle internalization,
C=C1[C@@H](C)[C@H]2[C@H](Cc3ccccc3)NC(=O)[C@]23[C@H](OC(C)=O)/C=C/[C@@](C)(O)C(=O)[C@@H](C)C/C=C/[C@H]3[C@@H]1O [cytochalasin D],suppressed IFN-I induction by PSM,significantly decreased particle internalization,
free FITC-OVA: free FITC-conjugated ovalbumin,,,Signal inside DCs at 6 hrs [4]: very weak signal by 6 hour
